Assay results as given in the kinase profiling compilation of Christmann-Franck et al. (2016).
Several values for one entry are separate records, joined by “and”; a condition that tells them apart may be missing. Equal values may be shown once.

Columns and labels:
Assay in all cases: radiometric filter-binding kinase assay, Kinase HotSpot
Conditions in all cases: compound 0.5 µM; ATP 10 µM
SRMS (human) = SRMS (human) (UniProt Q9H3Y6)
AKT1 (human) = AKT1 (human) (UniProt P31749)
SRPK1 (human) = SRPK1 (human) (UniProt Q96SB4)
LYN (human) = LYN (human) (UniProt P07948)
CDK2 CCNA2 (human) = CDK2 CCNA2 (human) (UniProt P24941+P20248)
FRK (human) = FRK (human) (UniProt P42685)
CDK1 CCNB1 (human) = CDK1 CCNB1 (human) (UniProt P06493+P14635)
PIM1 (human) = PIM1 (human) (UniProt P11309)
SRPK2 (human) = SRPK2 (human) (UniProt P78362)
PRKCI (human) = PRKCI (human) (UniProt P41743)
EPHA4 (human) = EPHA4 (human) (UniProt P54764)
SRPK3 (human) = SRPK3 (human) (UniProt Q9UPE1)
STK4 (human) = STK4 (human) (UniProt Q13043)
PAK4 (human) = PAK4 (human) (UniProt O96013)
CAMKK2 (human) = CAMKK2 (human) (UniProt Q96RR4)
ULK3 (human) = ULK3 (human) (UniProt Q6PHR2)
STK39 (human) = STK39 (human) (UniProt Q9UEW8)
EPHA8 (human) = EPHA8 (human) (UniProt P29322)
MLTK (human) = MLTK (human) (UniProt Q9NYL2)
MAP4K2 (human) = MAP4K2 (human) (UniProt Q12851)
CDK4 CCND1 (human) = CDK4 CCND1 (human) (UniProt P24385+P11802)
LRRK2 (human) = LRRK2 (human) (UniProt Q5S007)
PRKCG (human) = PRKCG (human) (UniProt P05129)
HCK (human) = HCK (human) (UniProt P08631)
EPHA2 (human) = EPHA2 (human) (UniProt P29317)
NTRK3 (human) = NTRK3 (human) (UniProt Q16288)
IRAK4 (human) = IRAK4 (human) (UniProt Q9NWZ3)
BTK (human) = BTK (human) (UniProt Q06187)
PRKG2 (human) = PRKG2 (human) (UniProt Q13237)
RPS6KA3 KD1 KD2 (human) = RPS6KA3 KD1 KD2 (human) (UniProt P51812)
FES (human) = FES (human) (UniProt P07332)
GSG2 (human) = GSG2 (human) (UniProt Q8TF76)
CDK6 CCND1 (human) = CDK6 CCND1 (human) (UniProt Q00534+P24385)
RPS6KA6 KD1 KD2 (human) = RPS6KA6 KD1 KD2 (human) (UniProt Q9UK32)
CDK9 CCNK (human) = CDK9 CCNK (human) (UniProt O75909+P50750)
STK11 (human) = STK11 (human) (UniProt Q15831)
ADRBK1 (human) = ADRBK1 (human) (UniProt P25098)
PTK2B (human) = PTK2B (human) (UniProt Q14289)
CSNK1E (human) = CSNK1E (human) (UniProt P49674)
MST4 (human) = MST4 (human) (UniProt Q9P289)
TXK (human) = TXK (human) (UniProt P42681)

AKT1 (human), sequence (P31749 whole entry, looked up): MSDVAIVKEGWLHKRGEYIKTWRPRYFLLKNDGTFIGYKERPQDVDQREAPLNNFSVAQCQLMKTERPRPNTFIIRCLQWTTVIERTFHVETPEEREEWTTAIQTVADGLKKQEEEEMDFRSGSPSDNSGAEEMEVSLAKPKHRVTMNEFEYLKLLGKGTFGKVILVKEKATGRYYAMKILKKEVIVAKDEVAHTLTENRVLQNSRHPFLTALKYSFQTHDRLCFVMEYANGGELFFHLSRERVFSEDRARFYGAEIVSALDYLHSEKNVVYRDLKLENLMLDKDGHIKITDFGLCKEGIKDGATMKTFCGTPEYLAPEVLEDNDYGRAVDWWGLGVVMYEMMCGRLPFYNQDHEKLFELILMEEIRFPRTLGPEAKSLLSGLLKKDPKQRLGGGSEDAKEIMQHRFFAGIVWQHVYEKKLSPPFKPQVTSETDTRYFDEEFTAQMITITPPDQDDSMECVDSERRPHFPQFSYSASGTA
HCK (human), sequence (P08631 whole entry, looked up): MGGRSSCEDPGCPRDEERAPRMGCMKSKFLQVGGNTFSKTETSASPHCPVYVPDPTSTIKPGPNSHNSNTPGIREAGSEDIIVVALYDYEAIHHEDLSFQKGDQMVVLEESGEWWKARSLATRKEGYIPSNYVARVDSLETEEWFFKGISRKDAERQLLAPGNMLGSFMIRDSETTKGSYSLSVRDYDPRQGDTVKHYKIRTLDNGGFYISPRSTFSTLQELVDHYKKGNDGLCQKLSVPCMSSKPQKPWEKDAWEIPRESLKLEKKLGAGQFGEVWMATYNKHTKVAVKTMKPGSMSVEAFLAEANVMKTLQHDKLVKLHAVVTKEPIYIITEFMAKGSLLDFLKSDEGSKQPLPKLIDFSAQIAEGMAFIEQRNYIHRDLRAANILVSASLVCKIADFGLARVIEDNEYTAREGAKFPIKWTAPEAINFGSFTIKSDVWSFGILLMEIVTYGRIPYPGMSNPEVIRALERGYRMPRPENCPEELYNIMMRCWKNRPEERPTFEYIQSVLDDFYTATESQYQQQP
CDK1 CCNB1 (human), sequence (P06493 whole entry, looked up): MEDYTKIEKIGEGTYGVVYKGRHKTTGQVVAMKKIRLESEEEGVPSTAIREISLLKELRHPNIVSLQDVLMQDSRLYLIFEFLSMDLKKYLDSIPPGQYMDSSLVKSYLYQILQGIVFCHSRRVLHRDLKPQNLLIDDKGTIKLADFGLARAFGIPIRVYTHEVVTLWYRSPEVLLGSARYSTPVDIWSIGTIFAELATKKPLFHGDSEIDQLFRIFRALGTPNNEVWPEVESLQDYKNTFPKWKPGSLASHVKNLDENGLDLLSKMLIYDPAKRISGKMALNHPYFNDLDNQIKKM
CDK1 CCNB1 (human), sequence (P14635 whole entry, looked up): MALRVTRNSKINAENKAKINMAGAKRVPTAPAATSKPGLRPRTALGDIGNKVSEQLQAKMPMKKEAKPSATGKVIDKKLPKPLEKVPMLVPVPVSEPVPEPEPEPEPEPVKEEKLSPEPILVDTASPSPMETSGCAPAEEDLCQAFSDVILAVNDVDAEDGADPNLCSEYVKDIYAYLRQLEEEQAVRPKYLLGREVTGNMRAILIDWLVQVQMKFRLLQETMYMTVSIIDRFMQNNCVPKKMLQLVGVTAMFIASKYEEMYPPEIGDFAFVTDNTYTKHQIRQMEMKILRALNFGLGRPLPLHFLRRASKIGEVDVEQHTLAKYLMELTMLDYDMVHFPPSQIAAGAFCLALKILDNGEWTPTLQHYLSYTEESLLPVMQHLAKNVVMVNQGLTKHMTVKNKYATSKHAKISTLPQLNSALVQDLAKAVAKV
PAK4 (human), sequence (O96013 whole entry, looked up): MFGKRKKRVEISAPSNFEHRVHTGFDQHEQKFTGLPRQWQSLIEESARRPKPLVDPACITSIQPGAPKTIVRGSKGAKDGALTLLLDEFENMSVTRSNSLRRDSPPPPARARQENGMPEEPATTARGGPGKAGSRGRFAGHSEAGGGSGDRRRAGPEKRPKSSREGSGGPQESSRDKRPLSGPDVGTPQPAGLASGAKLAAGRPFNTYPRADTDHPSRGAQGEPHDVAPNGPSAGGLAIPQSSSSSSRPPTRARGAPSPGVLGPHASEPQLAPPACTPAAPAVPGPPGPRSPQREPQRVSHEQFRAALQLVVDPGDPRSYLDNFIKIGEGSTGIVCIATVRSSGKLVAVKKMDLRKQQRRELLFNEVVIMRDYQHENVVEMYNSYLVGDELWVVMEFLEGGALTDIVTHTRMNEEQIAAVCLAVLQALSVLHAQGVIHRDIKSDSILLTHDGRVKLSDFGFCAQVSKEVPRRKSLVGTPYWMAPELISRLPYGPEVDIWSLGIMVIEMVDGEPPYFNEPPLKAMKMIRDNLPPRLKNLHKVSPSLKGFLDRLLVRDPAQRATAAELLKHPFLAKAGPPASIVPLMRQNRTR
PRKCI (human), sequence (P41743 whole entry, looked up): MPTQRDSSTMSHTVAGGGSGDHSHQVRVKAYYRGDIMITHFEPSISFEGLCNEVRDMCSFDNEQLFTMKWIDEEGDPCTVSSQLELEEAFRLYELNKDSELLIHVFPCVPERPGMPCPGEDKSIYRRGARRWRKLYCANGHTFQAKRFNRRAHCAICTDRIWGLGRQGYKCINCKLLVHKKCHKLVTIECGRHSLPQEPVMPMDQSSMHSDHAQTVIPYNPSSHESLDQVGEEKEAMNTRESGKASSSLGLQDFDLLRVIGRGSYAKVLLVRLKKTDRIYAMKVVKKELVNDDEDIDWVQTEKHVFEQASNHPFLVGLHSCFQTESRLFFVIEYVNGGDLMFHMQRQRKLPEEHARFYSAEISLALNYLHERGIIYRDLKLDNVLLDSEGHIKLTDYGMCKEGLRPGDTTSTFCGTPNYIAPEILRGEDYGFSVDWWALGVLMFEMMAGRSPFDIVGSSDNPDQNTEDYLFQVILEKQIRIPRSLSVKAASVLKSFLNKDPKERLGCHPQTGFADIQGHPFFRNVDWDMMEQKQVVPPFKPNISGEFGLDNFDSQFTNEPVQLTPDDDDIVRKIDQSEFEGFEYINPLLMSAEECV
EPHA4 (human), sequence (P54764 whole entry, looked up): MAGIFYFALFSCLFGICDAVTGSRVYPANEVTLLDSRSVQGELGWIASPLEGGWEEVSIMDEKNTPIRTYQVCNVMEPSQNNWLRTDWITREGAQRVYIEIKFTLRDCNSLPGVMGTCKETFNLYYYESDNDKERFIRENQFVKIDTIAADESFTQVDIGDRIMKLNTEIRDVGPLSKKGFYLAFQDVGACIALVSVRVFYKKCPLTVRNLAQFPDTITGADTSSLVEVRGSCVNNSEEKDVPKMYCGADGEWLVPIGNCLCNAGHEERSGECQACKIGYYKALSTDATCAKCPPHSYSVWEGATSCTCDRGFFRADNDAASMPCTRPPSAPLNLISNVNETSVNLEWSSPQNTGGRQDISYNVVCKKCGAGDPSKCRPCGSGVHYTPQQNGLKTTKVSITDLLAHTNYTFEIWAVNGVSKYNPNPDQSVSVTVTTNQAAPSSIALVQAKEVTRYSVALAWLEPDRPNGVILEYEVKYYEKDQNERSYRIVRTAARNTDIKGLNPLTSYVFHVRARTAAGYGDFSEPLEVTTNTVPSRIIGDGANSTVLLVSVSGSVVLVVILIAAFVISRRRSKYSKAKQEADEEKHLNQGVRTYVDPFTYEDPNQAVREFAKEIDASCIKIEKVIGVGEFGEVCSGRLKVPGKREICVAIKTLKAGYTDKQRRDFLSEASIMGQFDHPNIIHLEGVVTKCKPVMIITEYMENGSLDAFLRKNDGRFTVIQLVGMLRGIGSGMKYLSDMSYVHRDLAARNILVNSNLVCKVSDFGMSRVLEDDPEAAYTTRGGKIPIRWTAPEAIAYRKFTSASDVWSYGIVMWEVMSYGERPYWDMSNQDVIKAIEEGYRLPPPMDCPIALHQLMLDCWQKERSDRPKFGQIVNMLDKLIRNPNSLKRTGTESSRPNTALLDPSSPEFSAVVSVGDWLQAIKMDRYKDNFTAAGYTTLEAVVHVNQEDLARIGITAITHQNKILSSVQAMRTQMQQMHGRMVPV
STK4 (human), sequence (Q13043 whole entry, looked up): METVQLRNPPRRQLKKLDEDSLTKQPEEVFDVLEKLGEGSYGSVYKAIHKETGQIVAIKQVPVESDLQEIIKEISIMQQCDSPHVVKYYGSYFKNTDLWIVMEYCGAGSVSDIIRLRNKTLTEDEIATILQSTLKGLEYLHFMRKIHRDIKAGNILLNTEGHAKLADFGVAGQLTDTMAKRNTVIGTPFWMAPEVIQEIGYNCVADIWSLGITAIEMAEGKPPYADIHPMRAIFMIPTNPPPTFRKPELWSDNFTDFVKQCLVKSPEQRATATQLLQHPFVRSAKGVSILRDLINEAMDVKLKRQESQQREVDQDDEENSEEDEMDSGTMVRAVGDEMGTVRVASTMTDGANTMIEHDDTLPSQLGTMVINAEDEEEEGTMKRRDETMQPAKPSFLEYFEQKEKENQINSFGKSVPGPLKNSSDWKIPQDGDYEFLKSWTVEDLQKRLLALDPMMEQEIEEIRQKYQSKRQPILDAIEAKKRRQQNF
CAMKK2 (human), sequence (Q96RR4 whole entry, looked up): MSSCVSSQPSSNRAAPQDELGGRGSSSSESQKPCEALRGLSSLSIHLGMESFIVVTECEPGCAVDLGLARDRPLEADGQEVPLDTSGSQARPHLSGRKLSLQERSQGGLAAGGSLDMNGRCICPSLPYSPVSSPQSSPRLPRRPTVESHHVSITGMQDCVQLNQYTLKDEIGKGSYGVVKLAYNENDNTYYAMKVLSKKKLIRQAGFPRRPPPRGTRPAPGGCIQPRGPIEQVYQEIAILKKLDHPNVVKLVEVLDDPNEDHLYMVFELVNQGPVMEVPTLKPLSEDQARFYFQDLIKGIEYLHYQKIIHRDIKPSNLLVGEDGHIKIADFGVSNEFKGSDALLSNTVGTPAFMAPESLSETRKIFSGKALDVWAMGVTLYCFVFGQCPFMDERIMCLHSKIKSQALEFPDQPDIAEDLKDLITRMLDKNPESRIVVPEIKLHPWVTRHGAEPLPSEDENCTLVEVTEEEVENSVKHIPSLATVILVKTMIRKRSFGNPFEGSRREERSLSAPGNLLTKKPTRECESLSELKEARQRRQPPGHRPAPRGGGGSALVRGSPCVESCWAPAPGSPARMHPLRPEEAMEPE

In the case of CCC(=O)Nc1ccc2ncnc(Nc3cccc(Br)c3)c2c1, the residual activity (SRMS (human)) is reported as 99.4%, the residual activity (AKT1 (human)) is reported as 95.8% and the residual activity (SRPK1 (human)) is reported as 97%. The residual activity (LYN (human)) was 82.6% and 87.7%, the residual activity (CDK2 CCNA2 (human)) was 95.1% and the residual activity (FRK (human)) was 66.8%. It also gave a residual activity (CDK1 CCNB1 (human)) of 89.5%, a residual activity (PIM1 (human)) of 85.3% and a residual activity (SRPK2 (human)) of 88.6%. For the same compound, the residual activity (PRKCI (human)) was 106%, the residual activity (EPHA4 (human)) was 94.3% and the residual activity (SRPK3 (human)) was 97%. For the same compound, the residual activity (STK4 (human)) was 97.1%, the residual activity (PAK4 (human)) was 105% and the residual activity (CAMKK2 (human)) was 84.3%. It also gave a residual activity (ULK3 (human)) of 97.5%, a residual activity (STK39 (human)) of 96.1% and a residual activity (EPHA8 (human)) of 96.6%. It also gave a residual activity (MLTK (human)) of 96%, a residual activity (MAP4K2 (human)) of 90.5% and a residual activity (CDK4 CCND1 (human)) of 101%. For the same compound, the residual activity (LRRK2 (human)) was 92.4%, the residual activity (PRKCG (human)) was 102% and the residual activity (HCK (human)) was 93%. The residual activity (EPHA2 (human)) was 101%, the residual activity (NTRK3 (human)) was 95.8% and the residual activity (IRAK4 (human)) was 79.8%. For the same compound, the residual activity (BTK (human)) was 89.4%, the residual activity (PRKG2 (human)) was 110% and the residual activity (RPS6KA3 KD1 KD2 (human)) was 95%. For the same compound, the residual activity (FES (human)) was 102%, the residual activity (GSG2 (human)) was 95.2% and the residual activity (CDK6 CCND1 (human)) was 92.5%. The residual activity (RPS6KA6 KD1 KD2 (human)) was 90.6%, the residual activity (CDK9 CCNK (human)) was 94.1% and the residual activity (STK11 (human)) was 103%. It also gave a residual activity (ADRBK1 (human)) of 112%, a residual activity (PTK2B (human)) of 99% and a residual activity (CSNK1E (human)) of 98.2%. It also gave a residual activity (MST4 (human)) of 97.6% and a residual activity (TXK (human)) of 90.5%.
With O=C1NC(=O)/C(=C/c2ccc3c(c2)OC(F)(F)O3)S1 the residual activity (SRMS (human)) was 103%, the residual activity (AKT1 (human)) was 98.2% and the residual activity (SRPK1 (human)) was 105%. The residual activity (LYN (human)) was 98.1% and 99.9%, the residual activity (CDK2 CCNA2 (human)) was 107% and the residual activity (FRK (human)) was 93.4%. For the same compound, the residual activity (CDK1 CCNB1 (human)) was 99.6%, the residual activity (PIM1 (human)) was 35.9% and the residual activity (SRPK2 (human)) was 105%. For the same compound, the residual activity (PRKCI (human)) was 95.9%, the residual activity (EPHA4 (human)) was 95.9% and the residual activity (SRPK3 (human)) was 95.4%. The residual activity (STK4 (human)) was 93.3%, the residual activity (PAK4 (human)) was 90% and the residual activity (CAMKK2 (human)) was 82.9%. The residual activity (ULK3 (human)) was 109%, the residual activity (STK39 (human)) was 110% and the residual activity (EPHA8 (human)) was 93.8%. For the same compound, the residual activity (MLTK (human)) was 97.6%, the residual activity (MAP4K2 (human)) was 90.7% and the residual activity (CDK4 CCND1 (human)) was 97.1%. It also gave a residual activity (LRRK2 (human)) of 103%, a residual activity (PRKCG (human)) of 101% and a residual activity (HCK (human)) of 89.8%. For the same compound, the residual activity (EPHA2 (human)) was 96.3%, the residual activity (NTRK3 (human)) was 98% and the residual activity (IRAK4 (human)) was 99.2%. For the same compound, the residual activity (BTK (human)) was 94.3%, the residual activity (PRKG2 (human)) was 104% and the residual activity (RPS6KA3 KD1 KD2 (human)) was 103%. For the same compound, the residual activity (FES (human)) was 98.3%, the residual activity (GSG2 (human)) was 96.7% and the residual activity (CDK6 CCND1 (human)) was 95.4%. It also gave a residual activity (RPS6KA6 KD1 KD2 (human)) of 96.5%, a residual activity (CDK9 CCNK (human)) of 93.5% and a residual activity (STK11 (human)) of 96.9%. It also gave a residual activity (ADRBK1 (human)) of 103%, a residual activity (PTK2B (human)) of 110% and a residual activity (CSNK1E (human)) of 96.9%. It also gave a residual activity (MST4 (human)) of 86.8% and a residual activity (TXK (human)) of 95.4%.
CCCC(=O)Oc1ccc2[nH]c(C(=O)c3cc4ccccc4[nH]3)cc2c1 showed a residual activity (SRMS (human)) of 104%, a residual activity (AKT1 (human)) of 102% and a residual activity (SRPK1 (human)) of 105%. The residual activity (LYN (human)) was 103% and 98.7%, the residual activity (CDK2 CCNA2 (human)) was 88.9% and the residual activity (FRK (human)) was 98.2%. It also gave a residual activity (CDK1 CCNB1 (human)) of 106%, a residual activity (PIM1 (human)) of 100% and a residual activity (SRPK2 (human)) of 89.4%. It also gave a residual activity (PRKCI (human)) of 99.2%, a residual activity (EPHA4 (human)) of 99.3% and a residual activity (SRPK3 (human)) of 93.2%. The residual activity (STK4 (human)) was 96.8%, the residual activity (PAK4 (human)) was 87.4% and the residual activity (CAMKK2 (human)) was 84.6%. It also gave a residual activity (ULK3 (human)) of 89.5%, a residual activity (STK39 (human)) of 117% and a residual activity (EPHA8 (human)) of 98%. The residual activity (MLTK (human)) was 104%, the residual activity (MAP4K2 (human)) was 95.3% and the residual activity (CDK4 CCND1 (human)) was 106%. For the same compound, the residual activity (LRRK2 (human)) was 101%, the residual activity (PRKCG (human)) was 99% and the residual activity (HCK (human)) was 95.1%. The residual activity (EPHA2 (human)) was 99%, the residual activity (NTRK3 (human)) was 95.9% and the residual activity (IRAK4 (human)) was 82.7%. The residual activity (BTK (human)) was 88.2%, the residual activity (PRKG2 (human)) was 97.6% and the residual activity (RPS6KA3 KD1 KD2 (human)) was 97.5%. For the same compound, the residual activity (FES (human)) was 97.8%, the residual activity (GSG2 (human)) was 99.2% and the residual activity (CDK6 CCND1 (human)) was 92.7%. For the same compound, the residual activity (RPS6KA6 KD1 KD2 (human)) was 95.4%, the residual activity (CDK9 CCNK (human)) was 104% and the residual activity (STK11 (human)) was 101%. For the same compound, the residual activity (ADRBK1 (human)) was 101%, the residual activity (PTK2B (human)) was 87.6% and the residual activity (CSNK1E (human)) was 97.4%. The residual activity (MST4 (human)) was 94.8% and the residual activity (TXK (human)) was 99.1%.
Compound CO[C@H]1CC2CC[C@@H](C)[C@@](O)(O2)C(=O)C(=O)N2CCCC[C@H]2C(=O)OC([C@H](C)C[C@@H]2CC[C@@H](O)[C@H](OC)C2)CC(=O)[C@H](C)/C=C(\C)[C@@H](O)[C@@H](OC)C(=O)[C@H](C)C[C@H](C)/C=C/C=C/C=C/1C (some centres undefined) has a residual activity (SRMS (human)) of 108%, a residual activity (AKT1 (human)) of 104% and a residual activity (SRPK1 (human)) of 108%. For the same compound, the residual activity (LYN (human)) was 100% and 105%, the residual activity (CDK2 CCNA2 (human)) was 101% and the residual activity (FRK (human)) was 106%. The residual activity (CDK1 CCNB1 (human)) was 103%, the residual activity (PIM1 (human)) was 104% and the residual activity (SRPK2 (human)) was 104%. The residual activity (PRKCI (human)) was 99.1%, the residual activity (EPHA4 (human)) was 115% and the residual activity (SRPK3 (human)) was 97.2%. It also gave a residual activity (STK4 (human)) of 106%, a residual activity (PAK4 (human)) of 97.1% and a residual activity (CAMKK2 (human)) of 115%. For the same compound, the residual activity (ULK3 (human)) was 85.6%, the residual activity (STK39 (human)) was 97.9% and the residual activity (EPHA8 (human)) was 92.7%. For the same compound, the residual activity (MLTK (human)) was 103%, the residual activity (MAP4K2 (human)) was 111% and the residual activity (CDK4 CCND1 (human)) was 115%. The residual activity (LRRK2 (human)) was 98.7%, the residual activity (PRKCG (human)) was 106% and the residual activity (HCK (human)) was 102%. The residual activity (EPHA2 (human)) was 107%, the residual activity (NTRK3 (human)) was 103% and the residual activity (IRAK4 (human)) was 123%. The residual activity (BTK (human)) was 101%, the residual activity (PRKG2 (human)) was 91.9% and the residual activity (RPS6KA3 KD1 KD2 (human)) was 105%. For the same compound, the residual activity (FES (human)) was 108%, the residual activity (GSG2 (human)) was 103% and the residual activity (CDK6 CCND1 (human)) was 99.8%. For the same compound, the residual activity (RPS6KA6 KD1 KD2 (human)) was 118%, the residual activity (CDK9 CCNK (human)) was 106% and the residual activity (STK11 (human)) was 91.1%. The residual activity (ADRBK1 (human)) was 102%, the residual activity (PTK2B (human)) was 94.2% and the residual activity (CSNK1E (human)) was 102%. The residual activity (MST4 (human)) was 113% and the residual activity (TXK (human)) was 105%.
